Test results published in the NIST ThermoML archive (doi:10.1016/j.tca.2015.06.017).

Test: xn = mol fraction of the nth substance listed
Conditions: Liquid, Vibrating tube method

CCC(C)Cl (stereo unspecified) [2-chlorobutane] + CCCCCCC
mass density [kg/m3]
Conditions | 283.15 K | 293.15 K
100 kPa, x2 = 0.0524 | 870.08 | 859.09
100 kPa, x2 = 0.1018 | 857.33 | 846.5
100 kPa, x2 = 0.1968 | 834.23 | 823.7
100 kPa, x2 = 0.3006 | 810.89 | 800.7
100 kPa, x2 = 0.4029 | 789.62 | 779.7
100 kPa, x2 = 0.5017 | 770.58 | 760.98
100 kPa, x2 = 0.6008 | 752.78 | 743.44
100 kPa, x2 = 0.7023 | 735.82 | 726.75
100 kPa, x2 = 0.7977 | 720.94 | 712.09
100 kPa, x2 = 0.8986 | 706.28 | 697.66
100 kPa, x2 = 0.952 | 698.95 | 690.45
2000 kPa, x2 = 0.0524 | 872.12 | 861.28
2000 kPa, x2 = 0.1018 | 859.33 | 848.65
2000 kPa, x2 = 0.1968 | 836.28 | 825.79
2000 kPa, x2 = 0.3006 | 812.93 | 802.72
2000 kPa, x2 = 0.4029 | 791.64 | 781.78
2000 kPa, x2 = 0.5017 | 772.59 | 763.02
2000 kPa, x2 = 0.6008 | 754.76 | 745.47
2000 kPa, x2 = 0.7023 | 737.76 | 728.77
2000 kPa, x2 = 0.7977 | 722.86 | 714.07
2000 kPa, x2 = 0.8986 | 708.14 | 699.64
2000 kPa, x2 = 0.952 | 700.89 | 692.42
5000 kPa, x2 = 0.0524 | 875.14 | 864.55
5000 kPa, x2 = 0.1018 | 862.34 | 851.88
5000 kPa, x2 = 0.1968 | 839.19 | 828.97
5000 kPa, x2 = 0.3006 | 815.75 | 805.92
5000 kPa, x2 = 0.4029 | 794.46 | 784.93
5000 kPa, x2 = 0.5017 | 775.35 | 766.08
5000 kPa, x2 = 0.6008 | 757.49 | 748.48
5000 kPa, x2 = 0.7023 | 740.41 | 731.73
5000 kPa, x2 = 0.7977 | 725.51 | 716.99
5000 kPa, x2 = 0.8986 | 710.74 | 702.52
5000 kPa, x2 = 0.952 | 703.44 | 695.28
7000 kPa, x2 = 0.0524 | 877.15 | 866.63
7000 kPa, x2 = 0.1018 | 864.31 | 853.99
7000 kPa, x2 = 0.1968 | 841.13 | 831.06
7000 kPa, x2 = 0.3006 | 817.66 | 807.98
7000 kPa, x2 = 0.4029 | 796.31 | 786.88
7000 kPa, x2 = 0.5017 | 777.21 | 768.04
7000 kPa, x2 = 0.6008 | 759.32 | 750.4
7000 kPa, x2 = 0.7023 | 742.22 | 733.58
7000 kPa, x2 = 0.7977 | 727.32 | 718.82
7000 kPa, x2 = 0.8986 | 712.5 | 704.3
7000 kPa, x2 = 0.952 | 705.2 | 697.05
10000 kPa, x2 = 0.0524 | 880.01 | 869.74
10000 kPa, x2 = 0.1018 | 867.16 | 857.1
10000 kPa, x2 = 0.1968 | 844.01 | 834.15
10000 kPa, x2 = 0.3006 | 820.49 | 810.94
10000 kPa, x2 = 0.4029 | 799.08 | 789.81
10000 kPa, x2 = 0.5017 | 779.9 | 770.91
10000 kPa, x2 = 0.6008 | 761.96 | 753.22
10000 kPa, x2 = 0.7023 | 744.79 | 736.37
10000 kPa, x2 = 0.7977 | 729.85 | 721.59
10000 kPa, x2 = 0.8986 | 714.98 | 707.02
10000 kPa, x2 = 0.952 | 707.64 | 699.74
20000 kPa, x2 = 0.0524 | 889.1 | 879.38
20000 kPa, x2 = 0.1018 | 876.16 | 866.54
20000 kPa, x2 = 0.1968 | 852.83 | 843.5
20000 kPa, x2 = 0.3006 | 829.21 | 820.12
20000 kPa, x2 = 0.4029 | 807.66 | 798.87
20000 kPa, x2 = 0.5017 | 788.35 | –
20000 kPa, x2 = 0.6008 | 770.29 | –
20000 kPa, x2 = 0.7023 | 753.01 | –
20000 kPa, x2 = 0.7977 | 737.95 | –
20000 kPa, x2 = 0.8986 | 722.98 | –
20000 kPa, x2 = 0.952 | 715.57 | –
30000 kPa, x2 = 0.0524 | 897.39 | –
30000 kPa, x2 = 0.1018 | 884.45 | –
30000 kPa, x2 = 0.1968 | 860.93 | –
30000 kPa, x2 = 0.3006 | 837.18 | –
30000 kPa, x2 = 0.4029 | 815.5 | –
30000 kPa, x2 = 0.5017 | 796.06 | –
30000 kPa, x2 = 0.6008 | 777.85 | –
30000 kPa, x2 = 0.7023 | 760.42 | –
30000 kPa, x2 = 0.7977 | 745.22 | –
30000 kPa, x2 = 0.8986 | 730.14 | –
30000 kPa, x2 = 0.952 | 722.65 | –
40000 kPa, x2 = 0.0524 | 905.09 | –
40000 kPa, x2 = 0.1018 | 892.06 | –
40000 kPa, x2 = 0.1968 | 868.43 | –
40000 kPa, x2 = 0.3006 | 844.52 | –
40000 kPa, x2 = 0.4029 | 822.78 | –
40000 kPa, x2 = 0.5017 | 803.2 | –
40000 kPa, x2 = 0.6008 | 784.86 | –
40000 kPa, x2 = 0.7023 | 767.33 | –
40000 kPa, x2 = 0.7977 | 751.95 | –
40000 kPa, x2 = 0.8986 | 736.77 | –
40000 kPa, x2 = 0.952 | 729.23 | –
50000 kPa, x2 = 0.0524 | 912.23 | –
50000 kPa, x2 = 0.1018 | 899.1 | –
50000 kPa, x2 = 0.1968 | 875.41 | –
50000 kPa, x2 = 0.3006 | 851.37 | –
50000 kPa, x2 = 0.4029 | 829.44 | –
50000 kPa, x2 = 0.5017 | 809.74 | –
50000 kPa, x2 = 0.6008 | 791.3 | –
50000 kPa, x2 = 0.7023 | 773.63 | –
50000 kPa, x2 = 0.7977 | 758.16 | –
50000 kPa, x2 = 0.8986 | 742.88 | –
50000 kPa, x2 = 0.952 | 735.27 | –
60000 kPa, x2 = 0.0524 | 918.92 | –
60000 kPa, x2 = 0.1018 | 905.75 | –
60000 kPa, x2 = 0.1968 | 881.9 | –
60000 kPa, x2 = 0.3006 | 857.83 | –
60000 kPa, x2 = 0.4029 | 835.76 | –
60000 kPa, x2 = 0.5017 | 816 | –
60000 kPa, x2 = 0.6008 | 797.44 | –
60000 kPa, x2 = 0.7023 | 779.67 | –
60000 kPa, x2 = 0.7977 | 764.09 | –
60000 kPa, x2 = 0.8986 | 748.68 | –
60000 kPa, x2 = 0.952 | 741.04 | –
65000 kPa, x2 = 0.0524 | 922.13 | –
65000 kPa, x2 = 0.1018 | 908.95 | –
65000 kPa, x2 = 0.1968 | 885.12 | –
65000 kPa, x2 = 0.3006 | 860.95 | –
65000 kPa, x2 = 0.4029 | 838.88 | –
65000 kPa, x2 = 0.5017 | 819 | –
65000 kPa, x2 = 0.6008 | 800.38 | –
65000 kPa, x2 = 0.7023 | 782.58 | –
65000 kPa, x2 = 0.7977 | 766.97 | –
65000 kPa, x2 = 0.8986 | 751.48 | –
65000 kPa, x2 = 0.952 | 743.76 | –
